Settings: Liquid, Closed cell (Static) method

CCO [ethanol]
Settings	vapor or sublimation pressure [kPa]
298.15 K	7.878
303.15 K	10.47
308.15 K	13.77
313.15 K	17.91
318.15 K	23.07
323.15 K	29.46

Source: the NIST ThermoML archive (doi:10.1016/j.jct.2005.07.015)
